# Test results reported in patent publication US9695155B2, “Herbicidal substituted pyrimidinyloxy benzene compounds” (E. I. DU PONT DE NEMOURS AND COMPANY, priority 2013, dated 2017).
# How the values were obtained:
# corn [1] = experiment: Test A postemergence; assay type: in vivo, Zea mays
# How it was run: (§1)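 Pre- and postemergence greenhouse screen. Soil: loam + sand. Spray carrier: solvent mixture, non-phytotoxic, with surfactant. Post timing at 1–2 leaves, height 2–10 cm. Readout: visual injury on a 0–100 scale roughly 10 days after application, untreated plants as reference.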
# sedge, umbrella = experiment: Test B flooded paddy test; assay type: in vivo, Cyperus difformis; details: Flood, 250 g ai/ha; 0 to 100 scale where 0 is no effect and 100 is complete control
# How it was run: (§2)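 Visual ratings on a 0 to 100 scale, where 100 means complete control, compared treated plants with controls after 13 to 15 days in a greenhouse. Treatment went into paddy water 3 cm deep over the soil, applied to plants at the 2-leaf stage.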
# barnyardgrass [2] = experiment: Test A postemergence; assay type: in vivo, Echinochloa crus-galli
# How it was run: as §1
# giant foxtail [3] = experiment: Test A preemergence; assay type: in vivo, Setaria faberii
# How it was run: as §1
# morningglory [4] = experiment: Test A postemergence; assay type: in vivo, Ipomoea spp.
# How it was run: as §1
# morningglory [5] = experiment: Test A preemergence; assay type: in vivo, Ipomoea spp.
# How it was run: as §1
# velvetleaf [6] = experiment: Test A preemergence; assay type: in vivo, Abutilon theophrasti
# How it was run: as §1
# pigweed [7] = experiment: Test A postemergence; assay type: in vivo, Amaranthus retroflexus
# How it was run: as §1
# velvetleaf [8] = experiment: Test A postemergence; assay type: in vivo, Abutilon theophrasti
# How it was run: as §1
# rice = experiment: Test B flooded paddy test; assay type: in vivo, Oryza sativa; details: Flood, 250 g ai/ha; 0 to 100 scale where 0 is no effect and 100 is complete control
# How it was run: as §2
# Heteranthera limosa = experiment: Test B flooded paddy test; assay type: in vivo; details: Flood, 250 g ai/ha; 0 to 100 scale where 0 is no effect and 100 is complete control
# How it was run: as §2
# barnyardgrass [9] = experiment: Test B flooded paddy test; assay type: in vivo, Echinochloa crus-galli; details: Flood, 250 g ai/ha; 0 to 100 scale where 0 is no effect and 100 is complete control
# How it was run: as §2
# pigweed [10] = experiment: Test A preemergence; assay type: in vivo, Amaranthus retroflexus
# How it was run: as §1
# corn [11] = experiment: Test A preemergence; assay type: in vivo, Zea mays; details: for Corn plant response rating: 500 g ai/ha
# How it was run: as §1
# barnyardgrass [12] = experiment: Test A preemergence; assay type: in vivo, Echinochloa crus-galli; details: for Barnyardgrass plant response rating: 500 g ai/ha
# How it was run: as §1
# wheat [13] = experiment: Test A preemergence; assay type: in vivo, Triticum aestivum
# How it was run: as §1
# giant foxtail [14] = experiment: Test A postemergence; assay type: in vivo, Setaria faberii
# How it was run: as §1
# large (Lg) crabgrass [15] = experiment: Test A postemergence; assay type: in vivo, Digitaria sanguinalis
# How it was run: as §1
# wheat [16] = experiment: Test A postemergence; assay type: in vivo, Triticum aestivum
# How it was run: as §1
# large (Lg) crabgrass [17] = experiment: Test A preemergence; assay type: in vivo, Digitaria sanguinalis; details: for Crabgrass, Large plant response rating: 500 g ai/ha
# How it was run: as §1
# [18] = 125 g ai/ha, 0 to 100 scale where 0 is no effect and 100 is complete control
# [19] = 500 g ai/ha, 0 to 100 scale where 0 is no effect and 100 is complete control
# [20] = 500 g ai/ha, 0 to 100 scale, 0 no effect, 100 complete control, approx. 10 days
# [21] = 0 to 100 scale, 0 no effect, 100 complete control, approx. 10 days
# [22] = 1000 g ai/ha, 0 to 100 scale, 0 no effect, 100 complete control
# [23] = 1000 g ai/ha, 0 to 100 scale, 0 no effect, 100 complete control, approx. 10 days
# [24] = 0 to 100 scale where 0 is no effect and 100 is complete control
smiles,measurement,setting,value
N#Cc1cccc(Oc2ncc(C(F)(F)F)cn2)c1-n1cc(Br)cn1 [Compound 113],"Plant response rating, Corn",corn [1]; [18],10
same,"Plant response rating, Corn",corn [1]; [19],60
same,"Plant response rating, Sedge, Umbrella","sedge, umbrella",0
same,"Plant response rating, Barnyardgrass",barnyardgrass [2]; [18],0
same,"Plant response rating, Barnyardgrass",barnyardgrass [2]; [19],80
same,"Plant response rating, Foxtail, Giant",giant foxtail [3]; [18],20
same,"Foxtail, Giant plant response rating",giant foxtail [3]; [20],90
same,"Plant response rating, Morningglory",morningglory [4]; [19],30
same,"Plant response rating, Morningglory",morningglory [5]; [18],0
same,Morningglory plant response rating,morningglory [5]; [20],30
same,"Plant response rating, Velvetleaf",velvetleaf [6]; [18],10
same,"Plant response rating, Pigweed",pigweed [7]; [19],80
same,"Plant response rating, Velvetleaf",velvetleaf [8]; [19],80
same,"Plant response rating, Rice",rice,0
same,"Plant response rating, Ducksalad",Heteranthera limosa,0
same,"Plant response rating, Barnyardgrass",barnyardgrass [9],0
same,"Plant response rating, Pigweed",pigweed [10]; [18],100
same,Pigweed plant response rating,pigweed [10]; [20],100
same,"Plant response rating, Corn",corn [11]; [18],0
same,Corn plant response rating,corn [11]; [21],20
same,"Plant response rating, Barnyardgrass",barnyardgrass [12]; [18],0
same,Barnyardgrass plant response rating,barnyardgrass [12]; [21],90
same,"Plant response rating, Wheat",wheat [13]; [18],0
same,"Plant response rating, Foxtail, Giant",giant foxtail [14]; [18],10
same,"Plant response rating, Foxtail, Giant",giant foxtail [14]; [19],60
same,"Plant response rating, Crabgrass, Large",large (Lg) crabgrass [15]; [18],20
same,"Plant response rating, Crabgrass, Large",large (Lg) crabgrass [15]; [19],70
same,"Plant response rating, Wheat",wheat [16]; [19],60
same,"Plant response rating, Crabgrass, Large",large (Lg) crabgrass [17]; [18],80
same,"Crabgrass, Large plant response rating",large (Lg) crabgrass [17]; [21],100
C=C(C)c1cn(-c2c(Br)cccc2Oc2ncc(Cl)cn2)nn1 [Compound 114],"Plant response rating, Corn",corn [1]; [22],70
same,"Plant response rating, Sedge, Umbrella","sedge, umbrella",30
same,"Plant response rating, Barnyardgrass",barnyardgrass [2]; [22],100
same,"Foxtail, Giant plant response rating",giant foxtail [3]; [23],100
same,"Plant response rating, Morningglory",morningglory [4]; [22],80
same,Morningglory plant response rating,morningglory [5]; [23],10
same,Velvetleaf plant response rating,velvetleaf [6]; [23],100
same,"Plant response rating, Pigweed",pigweed [7]; [22],100
same,"Plant response rating, Velvetleaf",velvetleaf [8]; [22],100
same,"Plant response rating, Rice",rice,0
same,"Plant response rating, Ducksalad",Heteranthera limosa,50
same,"Plant response rating, Barnyardgrass",barnyardgrass [9],0
same,Pigweed plant response rating,pigweed [10]; [23],100
same,"Plant response rating, Corn",corn [11]; [22],20
same,"Plant response rating, Barnyardgrass",barnyardgrass [12]; [22],90
same,Wheat plant response rating,wheat [13]; [23],40
same,"Plant response rating, Foxtail, Giant",giant foxtail [14]; [22],90
same,"Plant response rating, Crabgrass, Large",large (Lg) crabgrass [15]; [22],90
same,"Plant response rating, Wheat",wheat [16]; [22],60
same,"Plant response rating, Crabgrass, Large",large (Lg) crabgrass [17]; [22],100
O=Cc1cccc(Oc2ncc(Cl)cn2)c1-n1cc(I)cn1 [Compound 182],Corn plant response rating,corn [1]; [18],0
same,"Plant response rating, Corn",corn [1]; [19],0
same,"Plant response rating, Sedge, Umbrella","sedge, umbrella",0
same,Barnyardgrass plant response rating,barnyardgrass [2]; [18],0
same,"Plant response rating, Barnyardgrass",barnyardgrass [2]; [19],0
same,"Foxtail, Giant plant response rating (0 to 100 scale)",giant foxtail [3]; 125 g ai/ha,0
same,"Foxtail, Giant plant response rating",giant foxtail [3]; [19],20
same,Morningglory plant response rating,morningglory [4]; [18],0
same,"Plant response rating, Morningglory",morningglory [4]; [19],0
same,Morningglory plant response rating (0 to 100 scale),morningglory [5]; 125 g ai/ha,0
same,Morningglory plant response rating,morningglory [5]; [19],0
same,Velvetleaf plant response rating (0 to 100 scale),velvetleaf [6]; 125 g ai/ha,0
same,Velvetleaf plant response rating,velvetleaf [6]; [19],0
same,Pigweed plant response rating,pigweed [7]; [18],30
same,"Plant response rating, Pigweed",pigweed [7]; [19],90
same,Velvetleaf plant response rating,velvetleaf [8]; [18],30
same,"Plant response rating, Velvetleaf",velvetleaf [8]; [19],30
same,"Plant response rating, Rice",rice,0
same,"Plant response rating, Ducksalad",Heteranthera limosa,0
same,"Plant response rating, Barnyardgrass",barnyardgrass [9],0
same,Pigweed plant response rating (0 to 100 scale),pigweed [10]; 125 g ai/ha,90
same,Pigweed plant response rating,pigweed [10]; [19],100
same,Corn plant response rating (0 to 100 scale),corn [11]; 125 g ai/ha,0
same,Corn plant response rating,corn [11]; [24],0
same,"Barnyardgrass plant response rating (0 to 100 scale, 0 is no effect, 100 is complete control)",barnyardgrass [12]; 125 g ai/ha,0
same,Barnyardgrass plant response rating,barnyardgrass [12]; [24],20
same,Wheat plant response rating (0 to 100 scale),wheat [13]; 125 g ai/ha,0
same,Wheat plant response rating,wheat [13]; [19],0
same,"Foxtail, Giant plant response rating",giant foxtail [14]; [18],0
same,"Plant response rating, Foxtail, Giant",giant foxtail [14]; [19],0
same,"Crabgrass, Large plant response rating",large (Lg) crabgrass [15]; [18],0
same,"Plant response rating, Crabgrass, Large",large (Lg) crabgrass [15]; [19],0
same,Wheat plant response rating,wheat [16]; [18],0
same,"Plant response rating, Wheat",wheat [16]; [19],0
same,"Crabgrass, Large plant response rating (0 to 100 scale)",large (Lg) crabgrass [17]; 125 g ai/ha,0
same,"Crabgrass, Large plant response rating",large (Lg) crabgrass [17]; [24],30
